Assay results as given in patent US20200377501A1, “DEGRADERS OF EGFR AND METHODS OF USE THEREOF” (DANA-FARBER CANCER INSTITUTE, INC., priority 2018, published 2020).
Like-named read-outs stand apart in the source and are kept apart here.

How the values were obtained:
[1] = target: T1, recombinant EGFR T790M/L858R kinase (Homo sapiens, UniProt P00533, L858R/T790M); test: HTRF-based EGFR biochemical assay
T1 construct: Constructs spanning residues 696-1022 of the human EGFR; GST (cleaved yes); made in house; host or cells: Sf9 insect cells (pTriEX system)
T1 sequence (P00533 696-1022 T790M/L858R): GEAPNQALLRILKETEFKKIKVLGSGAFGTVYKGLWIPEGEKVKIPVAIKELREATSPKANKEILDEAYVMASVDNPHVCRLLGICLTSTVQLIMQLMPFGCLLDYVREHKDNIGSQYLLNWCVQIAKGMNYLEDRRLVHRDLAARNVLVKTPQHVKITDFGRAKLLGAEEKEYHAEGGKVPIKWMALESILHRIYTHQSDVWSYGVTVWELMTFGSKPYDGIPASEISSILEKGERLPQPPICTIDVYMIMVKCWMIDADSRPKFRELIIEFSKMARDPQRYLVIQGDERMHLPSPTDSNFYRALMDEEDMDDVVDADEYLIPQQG
Description: Constructs spanning residues 696-1022 of the human EGFR (including wild type and L858R, L858R/T790M, T790M, and T790M/V948R mutant sequences) were prepared in a GST-fusion format using the pTriEX system (Novagen) for expression in Sf9 insect cells essentially as described (Yun et al., PNAS 105, 2070-2075 (2008); Yun et al., Cancer Cell 11, 217-227 (2007)). EGFR kinase proteins were purified by glutathione-affinity chromatography followed by size-exclusion chromatography after cleavage with TEV or thrombin to remove the GST fusion partner following established procedures.
EGFR biochemical assays were carried out using a homogeneous time-resolved fluorescence (HTRF) assay as described previously. […] All reactions were carried out at room temperature in white ProxiPlate™ 384-well Plus plates (PerkinElmer) and were quenched with 5 μL of 0.2 M EDTA at 60 min.

[2] = target: T2, EGFR T790M/L858R Ba/F3 cell line (Homo sapiens, UniProt P00533, T790M/L858R, cells depend on it); test: Ba/F3 cell proliferation (MTS assay); assay type: cell-based, murine; details: for Remaining cell proliferation activity (% of control): EGFR T790M/L858R Ba/F3
T2 construct: The constructs were shuttled into the retroviral vector JP1540 using the BD Creator™ System (BD Biosciences)
T2 sequence (P00533 whole entry T790M/L858R): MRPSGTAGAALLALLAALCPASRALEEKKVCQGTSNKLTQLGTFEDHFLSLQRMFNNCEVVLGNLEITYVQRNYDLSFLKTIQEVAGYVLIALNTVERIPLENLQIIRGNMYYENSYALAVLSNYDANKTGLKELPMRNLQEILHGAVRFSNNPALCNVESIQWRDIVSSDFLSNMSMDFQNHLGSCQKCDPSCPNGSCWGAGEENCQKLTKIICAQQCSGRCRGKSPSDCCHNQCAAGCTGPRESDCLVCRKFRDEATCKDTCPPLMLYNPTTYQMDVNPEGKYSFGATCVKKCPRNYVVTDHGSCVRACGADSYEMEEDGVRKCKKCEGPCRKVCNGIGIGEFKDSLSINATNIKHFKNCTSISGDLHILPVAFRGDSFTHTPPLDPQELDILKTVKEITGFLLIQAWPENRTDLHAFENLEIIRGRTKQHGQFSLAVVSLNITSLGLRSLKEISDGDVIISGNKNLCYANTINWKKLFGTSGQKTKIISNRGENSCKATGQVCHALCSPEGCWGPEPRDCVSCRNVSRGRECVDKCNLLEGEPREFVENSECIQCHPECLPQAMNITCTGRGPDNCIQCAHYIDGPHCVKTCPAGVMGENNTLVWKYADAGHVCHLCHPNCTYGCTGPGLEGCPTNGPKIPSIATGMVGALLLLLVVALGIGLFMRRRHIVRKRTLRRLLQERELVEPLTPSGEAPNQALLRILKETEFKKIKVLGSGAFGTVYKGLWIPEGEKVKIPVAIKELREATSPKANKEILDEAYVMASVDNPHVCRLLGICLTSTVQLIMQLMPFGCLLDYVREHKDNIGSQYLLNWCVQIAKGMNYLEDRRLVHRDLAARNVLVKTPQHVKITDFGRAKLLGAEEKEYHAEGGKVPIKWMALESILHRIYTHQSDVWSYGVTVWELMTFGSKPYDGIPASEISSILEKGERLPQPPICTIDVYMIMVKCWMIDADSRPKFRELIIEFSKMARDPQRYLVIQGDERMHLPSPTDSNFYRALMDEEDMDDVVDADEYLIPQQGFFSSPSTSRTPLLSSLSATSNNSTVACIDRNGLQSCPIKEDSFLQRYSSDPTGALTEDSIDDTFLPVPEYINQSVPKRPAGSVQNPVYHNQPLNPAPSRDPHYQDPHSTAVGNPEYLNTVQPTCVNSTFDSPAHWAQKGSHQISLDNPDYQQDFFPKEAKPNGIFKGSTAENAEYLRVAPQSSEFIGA
Description: The EGFR mutant L858R, Del E746_A750, L858R/T790M, DelE746_A750/T790M, L858R/T790M/C797S and Del/T790M/C797S Ba/F3 cells were previously described (Zhou et al., Nature 462, (2009), 1070-1074). All cell lines were maintained in RPMI 1640 (Cellgro; Mediatech Inc., Herndon, Calif.) supplemented with 10% FBS 100 units/mL penicillin, 100 units/mL streptomycin, and 2 mM glutamine. L858R cells were maintained in ACL-4 media (Invitrogen, Carlsbad, Calif.) supplemented with 5% FBS, 100 units/mL penicillin, 100 units/mL streptomycin, and 2 mM glutamine. The EGFR 1941R mutation was introduced via site directed mutagenesis using the Quick Change Site-Directed Mutagenesis kit (Stratagene; La Jolla, Calif.) according to the manufacturer's instructions. All constructs were confirmed by DNA sequencing. The constructs were shuttled into the retroviral vector JP1540 using the BD Creator™ System (BD Biosciences). Ba/F3 cells were infected with retrovirus and according to standard protocols, as described previously (Zhou 2009). Stable clones were obtained by selection in puromycin (2 μg/ml).
Growth and inhibition of growth was assessed by MTS assay and was performed according to previously established methods (Zhou 2009). The MTS assay is a colorimetric method for determining the number of viable cells that is based on the bioreduction of MTS by cells to a formazan product that is soluble in cell culture medium and can be detected spectrophotometrically. […] All experimental points were set up in six wells and all experiments were repeated at least three times. […] The curves were fitted using anon-linear regression model with a sigmoidal dose response.

[3] = absence of cetuximab, read-out: Ba/F3 cellular activity (EC50) T790M/L858R
[4] = compound at 1 μM in the presence of 1 μg/mL cetuximab
[5] = read-out: Ba/F3 cellular activity (EC50) T790M/L858R + Cetuximab (1 μg/mL), presence of 1 μg/mL cetuximab

**Q.** What does the source list for `O=C1c2cc(-c3ccc(N4CCNCC4)cc3)ccc2Nc2ccc(F)cc2N1Cc1ccccc1` [I-1, 10-Benzyl-8-fluoro-2-(4-(piperazin-1-yl)phenyl)-5,10-dihydro-11H-dibenzo[b,e][1,4]diazepin-11-one]?
**A.** IC50 [1]: < 250 nM; EC50 [2, 3]: ≥ 750 nM; Remaining cell proliferation activity (% of control) [2, 4]: B (25 ≤ B < 50); Remaining cell proliferation activity (% of control) ([2]; compound at 1 μM): D (75 ≤ D); EC50 [2, 5]: 500 to 750 nM

**Q.** For `O=C1c2cc(-c3ccc4[nH]ccc4c3)ccc2Nc2ccc(F)cc2N1Cc1ccccc1` [I-2], which EC50 [2, 3] is on record?
**A.** ≥ 750 nM

**Q.** And the “Remaining cell proliferation activity (% of control)” value [2, 4]?
**A.** B (25 ≤ B < 50)

**Q.** And the “Remaining cell proliferation activity (% of control)” value ([2]; compound at 1 μM)?
**A.** D (75 ≤ D)

**Q.** What about the EC50 [2, 5] of the same compound?
**A.** < 250 nM

**Q.** Which results are given for `CN1CCC(n2cc(-c3ccc4c(c3)C(=O)N(Cc3ccccc3)c3cc(F)ccc3N4)cn2)CC1` [I-3]?
**A.** EC50 [2, 3]: ≥ 750 nM; Remaining cell proliferation activity (% of control) [2, 4]: B (25 ≤ B < 50); Remaining cell proliferation activity (% of control) ([2]; compound at 1 μM): D (75 ≤ D); EC50 [2, 5]: < 250 nM

**Q.** Which results are given for `O=C1c2cc(-c3ccc(-c4cn[nH]c4)cc3)ccc2Nc2ccc(F)cc2N1Cc1ccccc1` [I-4]?
**A.** EC50 [2, 3]: ≥ 750 nM; Remaining cell proliferation activity (% of control) [2, 4]: A (0 ≤ A < 25); Remaining cell proliferation activity (% of control) ([2]; compound at 1 μM): D (75 ≤ D); EC50 [2, 5]: 250 to 500 nM

**Q.** With `O=C1c2cc(-c3ccc(N4CCNCC4)cc3)ccc2Nc2ccc(F)cc2N1c1ccccc1` [I-5] as the compound, how does the EC50 [2, 3] read?
**A.** ≥ 750 nM

**Q.** And the “Remaining cell proliferation activity (% of control)” value [2, 4]?
**A.** D (75 ≤ D)

**Q.** And the “Remaining cell proliferation activity (% of control)” value ([2]; compound at 1 μM)?
**A.** D (75 ≤ D)

**Q.** What about the EC50 [2, 5] of the same compound?
**A.** ≥ 750 nM

**Q.** Which results are given for `O=C1c2cc(-c3ccc(N4CCNCC4)cc3)ccc2Nc2ccc(F)cc2N1Cc1cccnc1` [I-6]?
**A.** EC50 [2, 3]: ≥ 750 nM; Remaining cell proliferation activity (% of control) [2, 4]: D (75 ≤ D); Remaining cell proliferation activity (% of control) ([2]; compound at 1 μM): D (75 ≤ D); EC50 [2, 5]: ≥ 750 nM

**Q.** How did the EC50 [2, 3] turn out when `O=C1c2cc(-c3ccc(N4CCNCC4)cc3)ccc2Nc2ccc(F)cc2N1Cc1nccs1` [I-7] was run?
**A.** ≥ 750 nM

**Q.** And the “Remaining cell proliferation activity (% of control)” value [2, 4]?
**A.** C (50 ≤ C < 75)

**Q.** And the “Remaining cell proliferation activity (% of control)” value ([2]; compound at 1 μM)?
**A.** D (75 ≤ D)

**Q.** And the EC50 [2, 5]?
**A.** ≥ 750 nM

**Q.** How did the EC50 [2, 3] turn out when `O=C1c2cc(-c3ccc4[nH]ccc4c3)ccc2Nc2ccc(F)cc2N1c1ccccc1` [I-8] was run?
**A.** ≥ 750 nM

**Q.** And the “Remaining cell proliferation activity (% of control)” value [2, 4]?
**A.** D (75 ≤ D)

**Q.** And the “Remaining cell proliferation activity (% of control)” value ([2]; compound at 1 μM)?
**A.** D (75 ≤ D)

**Q.** What about the EC50 [2, 5] of the same compound?
**A.** ≥ 750 nM

**Q.** Which EC50 [2, 3] does the source give for `O=C1c2cc(-c3ccc4[nH]ccc4c3)ccc2Nc2ccc(F)cc2N1Cc1cccnc1` [I-9] here?
**A.** ≥ 750 nM

**Q.** What about the “Remaining cell proliferation activity (% of control)” value [2, 4] of the same compound?
**A.** D (75 ≤ D)

**Q.** And the “Remaining cell proliferation activity (% of control)” value ([2]; compound at 1 μM)?
**A.** D (75 ≤ D)

**Q.** And the EC50 [2, 5]?
**A.** ≥ 750 nM

**Q.** `O=C1c2cc(-c3ccc4[nH]ccc4c3)ccc2Nc2ccc(F)cc2N1Cc1nccs1` [I-10] was tested. Which EC50 [2, 3] did it give?
**A.** ≥ 750 nM

**Q.** What about the “Remaining cell proliferation activity (% of control)” value [2, 4] of the same compound?
**A.** D (75 ≤ D)

**Q.** And the “Remaining cell proliferation activity (% of control)” value ([2]; compound at 1 μM)?
**A.** D (75 ≤ D)

**Q.** And the EC50 [2, 5]?
**A.** ≥ 750 nM

**Q.** Which EC50 [2, 3] does the source give for `O=C1c2cc(-c3ccc(N4CCNCC4)cc3)ccc2Nc2ccccc2N1Cc1ccccc1` [I-11] here?
**A.** ≥ 750 nM

**Q.** What about the “Remaining cell proliferation activity (% of control)” value [2, 4] of the same compound?
**A.** B (25 ≤ B < 50)

**Q.** What about the “Remaining cell proliferation activity (% of control)” value ([2]; compound at 1 μM) of the same compound?
**A.** D (75 ≤ D)

**Q.** What about the EC50 [2, 5] of the same compound?
**A.** 250 to 500 nM

**Q.** How did the EC50 [2, 3] turn out when `O=C1c2cc(-c3ccc(N4CCNCC4)cc3)ccc2Nc2ncc(F)cc2N1Cc1ccccc1` [I-12] was run?
**A.** ≥ 750 nM

**Q.** What about the EC50 [2, 5] of the same compound?
**A.** ≥ 750 nM

**Q.** How did the EC50 [2, 3] turn out when `O=C1c2cc(-c3ccc(N4CCNCC4)cc3)ccc2Nc2ccncc2N1Cc1ccccc1` [I-13] was run?
**A.** ≥ 750 nM

**Q.** And the EC50 [2, 5]?
**A.** ≥ 750 nM

**Q.** How did the EC50 [2, 3] turn out when `Nc1ccc2c(c1)N(Cc1ccccc1)C(=O)c1cc(-c3ccc4[nH]ccc4c3)ccc1N2` [I-14] was run?
**A.** ≥ 750 nM

**Q.** What about the EC50 [2, 5] of the same compound?
**A.** ≥ 750 nM

**Q.** Which EC50 [2, 3] does the source give for `CC(=O)Nc1ccc2c(c1)N(Cc1ccccc1)C(=O)c1cc(-c3ccc4[nH]ccc4c3)ccc1N2` [I-15] here?
**A.** ≥ 750 nM

**Q.** What about the EC50 [2, 5] of the same compound?
**A.** ≥ 750 nM

**Q.** Which EC50 [2, 3] does the source give for `CCC(=O)Nc1ccc2c(c1)N(Cc1ccccc1)C(=O)c1cc(-c3ccc4[nH]ccc4c3)ccc1N2` [I-16] here?
**A.** 250 to 500 nM

**Q.** And the EC50 [2, 5]?
**A.** 250 to 500 nM

**Q.** For `CN1CCN(c2ccc(-c3ccc4c(c3)C(=O)N(Cc3ccccc3)c3cc(F)ccc3N4)cc2)CC1` [I-17], which IC50 [1] is on record?
**A.** < 250 nM

**Q.** How did the EC50 [2, 3] turn out when `O=C1c2cc(-c3ccc(N4CCNCC4)cc3)ccc2Nc2ccc(F)cc2N1Cc1cccc2cc[nH]c12` [I-18] was run?
**A.** ≥ 750 nM

**Q.** And the EC50 [2, 5]?
**A.** < 250 nM

**Q.** Which EC50 [2, 3] does the source give for `O=C1c2cc(-c3ccc(N4CCNCC4)cc3)ccc2Nc2ccc(F)cc2N1Cc1ccc2cc[nH]c2c1` [I-19] here?
**A.** ≥ 750 nM

**Q.** And the EC50 [2, 5]?
**A.** ≥ 750 nM

**Q.** Which EC50 [2, 3] does the source give for `CN1CCC(n2cc(-c3ccc4c(c3)C(=O)N(Cc3cccc(F)c3)c3cc(F)ccc3N4)cn2)CC1` [I-22] here?
**A.** ≥ 750 nM

**Q.** What about the EC50 [2, 5] of the same compound?
**A.** ≥ 750 nM

**Q.** With `CN1CCC(n2cc(-c3ccc4c(c3)C(=O)N(Cc3cccc(Cl)c3)c3cc(F)ccc3N4)cn2)CC1` [I-23] as the compound, how does the EC50 [2, 3] read?
**A.** ≥ 750 nM

**Q.** What about the EC50 [2, 5] of the same compound?
**A.** ≥ 750 nM

**Q.** Which results are given for `CN1CCC(n2cc(-c3ccc4c(c3)C(=O)N(Cc3cc(F)cc(F)c3)c3cc(F)ccc3N4)cn2)CC1` [I-24]?
**A.** EC50 [2, 3]: ≥ 750 nM; EC50 [2, 5]: ≥ 750 nM

**Q.** `CN1CCC(n2cc(-c3ccc4c(c3)C(=O)N(Cc3cccc5cc[nH]c35)c3cc(F)ccc3N4)cn2)CC1` [I-25] was tested. Which EC50 [2, 3] did it give?
**A.** ≥ 750 nM

**Q.** And the EC50 [2, 5]?
**A.** ≥ 750 nM
